One assay deals with hippocampal neurons. As to the kind of experiment: Prevention of reactive oxygen species accumulation from hydrogen peroxide (CDFFDA dye). The assay is classed as cell-based. The settings on record: Rattus norvegicus, Hippocampal neuron; hydrogen peroxide for three hours, day 18 hippocampal cultures; read-out: Potency of Reduction in Oxidized CDFFDA (ROS) EC50. From the text: Cell cultures: all compounds were screened with dissociated hippocampal cultures derived from embryonic day 18 rats as the primary test system. With this preparation, primary neurons were used to test for prevention of reactive oxygen species accumulation in response to hydrogen peroxide. In brief, hippocampal tissue was obtained commercially through Brain Bits (Springfield, Ill.) and cultures prepared as previously described (Brewer, G. J. Serum-free B27/neurobasal medium supports differentiated growth of neurons from the striatum, substantia nigra, septum, cerebral cortex, cerebellum and dentate gyms. J. Neurosci. Res. 1995, 42, 674-683). […]
Hydrogen peroxide and glutamate generate reactive oxygen species (ROS) such as superoxide anions, hydrogen peroxide and hydroxyl radicals which can reactively damage cellular components including DNA, lipids and proteins (Anderson et al. (2001). Green tea catechins partially protect DNA from OH radical-induced strand breaks and base damage through fast chemical repair of DNA radicals. Carcinogenesis 2001, 22:1189-1193). […] The cultures were then treated with 30 nM hydrogen peroxide for three hours and the fluorescence measured at Ex/Em 485/508. Background fluorescence was subtracted from values obtained from wells without cells.

A further assay has as its system 6-Hz psychomotor seizure. Briefly: 6 Hz psychomotor seizure test, mouse. In kind it is in vivo, mice. The note with it: ip. On the procedure: Methods to measure anticonvulsant activity: All tests were conducted by the Anticonvulsant Screening Program (ASP) of the National Institute of Neurological Disease and Stroke at the National Institutes of Health. The 6 Hz Seizure Test: Compounds were further tested in the 6-Hz psychomotor seizure model. (Barton et al. Pharmacological characterization of the 6 Hz psychomotor seizure model of partial epilepsy. Epilepsy Res. 2001, 47, 217-227). This model is used to detect […] that may be useful for the treatment of therapy-resistant partial seizures. For this test, an alternative electrical stimulation paradigm is used with a low frequency (6 Hz), long duration (3 seconds) corneal stimulation. The seizure evoked by this low frequency stimulation is characterized by immobility, forelimb clonus, Straub tail and facial automatisms. Mice are tested from 15 min to 4 hours following an intraperitoneal dose of 100 mg/kg. Abolition of the clonic seizures indicates the ability of a compound to prevent partial or psychomotor seizures.

As for `NS(=O)(=O)NCC(F)(F)c1ccccc1Cl` [Example 2, 2,2-Difluoro-2-(2-chlorophenyl)-ethyl-1-sulfamide], in the assay on hippocampal neurons, the EC50 (commonly the concentration that produces a half-maximal response) was 0.01 nM. Besides, the ED50 (commonly the dose at which the effect has come halfway, by size or by number of responders) with 6-Hz psychomotor seizure stood at 28 mg/kg.

Consider `NS(=O)(=O)NCC(F)(F)c1ccccc1F` [Example 1, 2,2-Difluoro-2-(2-fluorophenyl)-ethyl-1-sulfamide], for which the 50% effective concentration (EC50) in the assay on hippocampal neurons came out at 0.03 nM. Further, the 50% effective dose (ED50) in the assay on 6-Hz psychomotor seizure was found to be 18 mg/kg.

(Values after patent publication US20130253022A1 (FOX CHASE CHEMICAL DIVERSITY CENTER, INC., priority 2010, published 2013).)
